Assay results published in US6852755B1 (priority 1999, dated 2005).

System: breast carcinoma xenograft (50% MDA MB361 cells expressing β-galactosidase plus 50% MDA MB361-STCPG2(O)3 cells expressing surface tethered carboxypeptidase G2 …)
Design: species or system Nu/Nu BalbC mouse
Details: mouse, in vivo

SMILES | time up to which 50% survival was found post-treatment | time for which a 50% survival rate was provided
O=C(O)CC[C@H](NC(=O)c1ccc(N(CCCl)CCCl)c(F)c1)C(=O)O [B, {3-fluoro-4-[bis(2-chloroethyl)amino]benzoyl}-L-glutamic acid] | about 70 days | –
O=C(O)CC[C@H](NC(=O)c1cc(F)c(N(CCI)CCI)c(F)c1)C(=O)O [Example 1, {3,5-difluoro-4-[bis(2-iodoethyl)amino]benzoyl}-L-glutamic acid] | – | over 200 days
